In ChEMBL document CHEMBL5260859, “Discovery and structure-activity relationship study of 2-piperazinyl-benzothiazole derivatives as potent and selective PPARδ agonists” (Bioorg Med Chem, 2023):

Tests used:
[1] = molecular target: T1, Peroxisome proliferator-activated receptor alpha (Mus musculus) (UniProt P23204); assay: Agonist activity at Gal4-fused mouse PPAR-alpha ligand binding domain expressed in CHO-K1 cells assessed as receptor transactivation incubated for 24 to 48 hrs by luciferase reporter gene assay relative to control; assay type: cell-based; conditions: time lower 24.0 hrs, time upper […]
T1 sequence (whole entry): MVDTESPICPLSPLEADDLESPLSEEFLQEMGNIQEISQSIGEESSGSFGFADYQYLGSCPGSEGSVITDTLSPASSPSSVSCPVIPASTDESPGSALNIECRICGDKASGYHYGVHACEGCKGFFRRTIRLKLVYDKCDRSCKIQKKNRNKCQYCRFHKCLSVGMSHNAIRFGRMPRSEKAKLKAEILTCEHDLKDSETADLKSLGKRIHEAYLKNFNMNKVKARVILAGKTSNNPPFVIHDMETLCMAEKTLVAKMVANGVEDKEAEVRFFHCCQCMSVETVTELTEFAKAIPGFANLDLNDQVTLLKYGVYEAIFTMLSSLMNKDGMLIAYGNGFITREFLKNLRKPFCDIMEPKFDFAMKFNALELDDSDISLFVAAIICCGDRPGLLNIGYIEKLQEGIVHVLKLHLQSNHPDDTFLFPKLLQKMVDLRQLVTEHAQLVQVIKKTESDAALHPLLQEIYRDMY

[2] = molecular target: T2, Peroxisome proliferator-activated receptor delta (Mus musculus, UniProt P35396); assay: Agonist activity at Gal4-fused mouse PPAR-delta ligand binding domain expressed in CHO-K1 cells assessed as receptor transactivation incubated for 24 to 48 hrs by luciferase reporter gene assay; assay type: cell-based
T2 sequence (P35396 whole entry): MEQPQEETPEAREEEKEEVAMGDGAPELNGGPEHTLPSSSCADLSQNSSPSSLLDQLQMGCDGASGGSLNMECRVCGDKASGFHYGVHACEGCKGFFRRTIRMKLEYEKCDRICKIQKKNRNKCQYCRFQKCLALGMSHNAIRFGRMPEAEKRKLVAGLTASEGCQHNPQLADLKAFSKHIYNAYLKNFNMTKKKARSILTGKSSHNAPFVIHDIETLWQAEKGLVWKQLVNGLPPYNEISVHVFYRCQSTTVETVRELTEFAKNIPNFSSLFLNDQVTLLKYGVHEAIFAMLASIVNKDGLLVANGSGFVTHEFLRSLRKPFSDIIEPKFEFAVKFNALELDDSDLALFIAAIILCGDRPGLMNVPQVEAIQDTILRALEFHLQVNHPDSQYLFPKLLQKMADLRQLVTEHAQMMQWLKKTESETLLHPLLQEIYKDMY

[3] = molecular target: T3, Peroxisome proliferator-activated receptor delta (Homo sapiens, UniProt Q03181); assay: Agonist activity at Gal4-fused human PPAR-delta ligand binding domain expressed in CHO-K1 cells assessed as receptor transactivation incubated for 24 to 48 hrs by luciferase reporter gene assay; assay type: cell-based
T3 sequence (Q03181 whole entry): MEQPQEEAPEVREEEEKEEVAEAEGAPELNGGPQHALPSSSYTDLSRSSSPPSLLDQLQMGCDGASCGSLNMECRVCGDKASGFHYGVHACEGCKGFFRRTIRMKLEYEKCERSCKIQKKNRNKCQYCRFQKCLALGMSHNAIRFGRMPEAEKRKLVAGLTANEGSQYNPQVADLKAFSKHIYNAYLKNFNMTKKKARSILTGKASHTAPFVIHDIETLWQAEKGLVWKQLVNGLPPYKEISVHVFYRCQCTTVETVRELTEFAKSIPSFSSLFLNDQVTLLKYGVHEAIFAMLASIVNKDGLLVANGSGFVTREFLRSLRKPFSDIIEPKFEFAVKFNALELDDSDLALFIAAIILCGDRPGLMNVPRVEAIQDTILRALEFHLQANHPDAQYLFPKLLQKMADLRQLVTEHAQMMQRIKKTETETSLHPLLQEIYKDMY

[4] = molecular target: T4, Peroxisome proliferator-activated receptor delta (Homo sapiens) (UniProt Q03181); assay: Agonist activity at Gal4-fused human PPAR-delta ligand binding domain expressed in CHO-K1 cells assessed as receptor transactivation incubated for 24 to 48 hrs by luciferase reporter gene assay relative to control; assay type: cell-based; conditions: time lower 24.0 hrs, time upper […]
T4 sequence (whole entry): T3 sequence (Q03181 whole entry)

[5] = molecular target: T5, Peroxisome proliferator-activated receptor delta (Mus musculus) (UniProt P35396); assay: Agonist activity at Gal4-fused mouse PPAR-delta ligand binding domain expressed in CHO-K1 cells assessed as receptor transactivation incubated for 24 to 48 hrs by luciferase reporter gene assay relative to control; assay type: cell-based; conditions: time lower 24.0 hrs, time upper […]
T5 sequence (whole entry): T2 sequence (P35396 whole entry)

[6] = molecular target: T6, Peroxisome proliferator-activated receptor alpha (Mus musculus, UniProt P23204); assay: Agonist activity at Gal4-fused mouse PPAR-alpha ligand binding domain expressed in CHO-K1 cells assessed as receptor transactivation incubated for 24 to 48 hrs by luciferase reporter gene assay; assay type: cell-based
T6 sequence (P23204 whole entry): T1 sequence (whole entry)

Mus musculus [7] = assay: Antihypercholesterolemic activity against hApoB100/hCETP-dTg hypercholesterolemic mouse model assessed as serum HDL-C level at 3 mg/kg, po administered once daily for 8 days; assay type: functional; conditions: time 8 day
Mus musculus [8] = assay: Antihypercholesterolemic activity against hApoB100/hCETP-dTg hypercholesterolemic mouse model assessed as serum non-HDL-C level at 3 mg/kg, po administered once daily for 8 days; assay type: functional; conditions: time 8 day
[9] = molecular target: T7, Peroxisome proliferator-activated receptor alpha (Homo sapiens) (UniProt Q07869); assay: Agonist activity at Gal4-fused human PPAR-alpha ligand binding domain expressed in CHO-K1 cells assessed as receptor transactivation incubated for 24 to 48 hrs by luciferase reporter gene assay relative to control; assay type: cell-based; conditions: time lower 24.0 hrs, time upper […]
T7 sequence (whole entry): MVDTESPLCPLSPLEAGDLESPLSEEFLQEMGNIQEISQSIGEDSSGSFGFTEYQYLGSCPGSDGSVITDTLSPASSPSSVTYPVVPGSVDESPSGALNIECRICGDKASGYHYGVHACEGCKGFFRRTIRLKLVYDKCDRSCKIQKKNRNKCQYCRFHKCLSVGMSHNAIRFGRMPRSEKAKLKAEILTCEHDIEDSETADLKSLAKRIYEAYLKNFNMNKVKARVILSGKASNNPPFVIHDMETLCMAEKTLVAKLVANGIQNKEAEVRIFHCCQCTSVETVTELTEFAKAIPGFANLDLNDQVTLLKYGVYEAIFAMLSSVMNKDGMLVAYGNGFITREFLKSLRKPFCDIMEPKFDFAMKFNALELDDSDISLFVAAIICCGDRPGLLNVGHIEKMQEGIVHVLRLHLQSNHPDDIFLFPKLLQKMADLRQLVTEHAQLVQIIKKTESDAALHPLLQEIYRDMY

[10] = molecular target: T8, Peroxisome proliferator-activated receptor gamma (Mus musculus, UniProt P37238); assay: Agonist activity at Gal4-fused mouse PPAR-gamma ligand binding domain expressed in CHO-K1 cells assessed as receptor transactivation incubated for 24 to 48 hrs by luciferase reporter gene assay; assay type: cell-based
T8 sequence (P37238 whole entry): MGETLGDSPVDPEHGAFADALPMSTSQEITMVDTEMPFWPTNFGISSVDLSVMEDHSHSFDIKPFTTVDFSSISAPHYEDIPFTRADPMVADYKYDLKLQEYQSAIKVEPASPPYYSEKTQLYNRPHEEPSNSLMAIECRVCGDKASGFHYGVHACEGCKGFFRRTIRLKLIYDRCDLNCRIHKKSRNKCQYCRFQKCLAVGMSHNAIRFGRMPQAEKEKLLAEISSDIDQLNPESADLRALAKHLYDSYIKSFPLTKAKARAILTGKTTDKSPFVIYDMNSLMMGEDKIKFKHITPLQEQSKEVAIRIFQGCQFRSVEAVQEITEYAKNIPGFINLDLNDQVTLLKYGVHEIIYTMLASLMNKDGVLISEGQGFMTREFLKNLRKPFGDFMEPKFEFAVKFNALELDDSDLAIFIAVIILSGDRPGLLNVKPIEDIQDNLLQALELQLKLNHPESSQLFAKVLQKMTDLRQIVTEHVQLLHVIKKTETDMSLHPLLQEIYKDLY

[11] = molecular target: T9, Peroxisome proliferator-activated receptor gamma (Homo sapiens, UniProt P37231); assay type: cell-based, CHO-K1
T9 sequence (P37231 whole entry): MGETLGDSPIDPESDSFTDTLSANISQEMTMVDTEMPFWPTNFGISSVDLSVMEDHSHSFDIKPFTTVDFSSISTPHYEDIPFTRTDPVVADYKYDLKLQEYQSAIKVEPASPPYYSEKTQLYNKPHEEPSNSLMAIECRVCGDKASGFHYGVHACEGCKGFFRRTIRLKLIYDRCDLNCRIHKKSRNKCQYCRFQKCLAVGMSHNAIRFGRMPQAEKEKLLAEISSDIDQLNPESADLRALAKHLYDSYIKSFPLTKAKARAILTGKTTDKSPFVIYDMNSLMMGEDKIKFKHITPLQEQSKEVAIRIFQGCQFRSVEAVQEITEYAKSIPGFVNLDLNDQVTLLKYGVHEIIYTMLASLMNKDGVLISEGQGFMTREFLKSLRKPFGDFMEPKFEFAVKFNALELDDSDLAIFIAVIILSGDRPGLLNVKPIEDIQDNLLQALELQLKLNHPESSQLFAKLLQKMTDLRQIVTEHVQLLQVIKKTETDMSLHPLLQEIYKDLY

Mus musculus [12] = species: Mus musculus; assay: Selectivity ratio of EC50 for agonist activity at Gal4-fused mouse PPAR-alpha ligand binding domain expressed in CHO-K1 cells to EC50 for agonist activity at Gal4-fused mouse PPAR-delta ligand binding domain expressed in CHO-K1 cells; assay type: cell-based
Mus musculus [13] = species: Mus musculus; assay: Selectivity ratio of EC50 for agonist activity at Gal4-fused mouse PPAR-gamma ligand binding domain expressed in CHO-K1 cells to EC50 for agonist activity at Gal4-fused mouse PPAR-delta ligand binding domain expressed in CHO-K1 cells; assay type: cell-based

SMILES | Emax [1] | EC50 [2] | EC50 [3] | Emax [4] | Emax [5] | EC50 [6] | Activity (Mus musculus [7]) | Activity (Mus musculus [8]) | Emax [9] | EC50 [10] | EC50 [11] | Ratio EC50 (Mus musculus [12]) | Ratio EC50 (Mus musculus [13])
C[C@@H]1CN(c2nc3ccc(Cl)cc3s2)CCN1CCOc1cc(CC(=O)O)ccc1Cl | 21% | 47 nM | 16 nM | 19.8% | 28.3% | 3200 nM |  |  |  |  |  |  | 
Cc1cc(SCc2sc(-c3ccc(C(F)(F)F)cc3)nc2C)ccc1OCC(=O)O [GW501516] |  |  |  |  |  |  | 141% | 67% |  |  |  |  | 
CC1CN(c2nc3ccc(Cl)cc3s2)CCC1CCOc1cc(CC(=O)O)ccc1Cl (stereo not given) | 14.2% | 47 nM |  |  | 28.7% | 3600 nM |  |  | 3% | 1000 nM |  |  | 
C[C@@H]1CN(CCOc2cc(CC(=O)O)ccc2Cl)CCN1c1nc2ccc(Cl)cc2s1 | 12.5% | 46 nM | 7.9 nM | 21.9% | 27.6% | 3900 nM |  |  |  | 4.1 nM |  |  | 
Cc1cc(CC(=O)O)cc(CN2CCN(c3nc4ccc(C(F)(F)F)cc4s3)C[C@H]2C)c1 | 19% | 34 nM | 9.9 nM | 15.5% | 22.1% | 8000 nM |  |  |  |  |  |  | 
Cc1ccc(CC(=O)O)cc1OCCN1CCN(c2nc3ccc(Cl)cc3s2)CC1 |  | 110 nM | 33 nM | 14.4% | 25.3% |  |  |  |  |  |  |  | 
CC[C@H]1CN(Cc2cc(C)cc(CC(=O)O)c2)CCN1c1nc2ccc(C(F)(F)F)cc2s1 | 9.1% |  |  |  | 30.8% | 3800 nM |  |  |  | 670 nM |  |  | 
C[C@H]1CN(CCOc2cc(CC(=O)O)ccc2Cl)CCN1c1nc2ccc(Cl)cc2s1 | 16.7% | 27 nM | 17 nM | 23.9% | 27.9% | 13000 nM |  |  |  | 150 nM |  |  | 
C[C@H]1CN(c2nc3ccc(Cl)cc3s2)CCN1CCOc1cc(CC(=O)O)ccc1Cl | 8.3% | 12 nM | 5 nM | 15.5% | 23.2% | 7100 nM |  |  |  |  |  |  | 
Cc1cc(CC(=O)O)cc(CN2CCN(c3nc4ccc(C(F)(F)F)cc4s3)[C@@H](CC(C)C)C2)c1 | 4.5% | 79 nM | 19 nM | 13.6% | 17.9% | 5800 nM |  |  | 1.4% |  | 1500 nM | 73 | 
Cc1cc(CC(=O)O)cc(CN2CCN(c3nc4ccc(C(F)(F)F)cc4s3)CC2)c1 | 6.6% |  |  |  | 19% | 3000 nM |  |  |  | 3300 nM |  |  | 
CC[C@@H]1CN(Cc2cc(C)cc(CC(=O)O)c2)CCN1c1nc2ccc(C(F)(F)F)cc2s1 | 2.8% |  |  |  | 33.1% | 8500 nM |  |  |  | 40 nM |  |  | 
Cc1cc(CC(=O)O)cc(CN2CCN(c3nc4ccc(C(F)(F)F)cc4s3)[C@H](C(C)C)C2)c1 | 1.3% | 7.5 nM | 3.7 nM | 13.1% | 14.6% |  |  |  |  | 230 nM |  |  | 
CC[C@H]1CN(c2nc3ccc(Cl)cc3s2)CCC1CCOc1cc(CC(=O)O)ccc1Cl (stereo not given in full) | 6.1% | 5.8 nM |  |  | 31.3% | 3400 nM |  |  |  | 390 nM |  |  | 
Cc1cc(CC(=O)O)cc(CN2CCN(c3nc4ccc(C(F)(F)F)cc4s3)C[C@@H]2C)c1 | 1.1% | 28 nM | 6.9 nM | 19.5% | 22.1% |  |  |  |  |  |  |  | 
CC(C)C[C@H]1CN(c2nc3ccc(Cl)cc3s2)CCC1CCOc1cc(CC(=O)O)ccc1Cl (stereo not given in full) | 4.6% | 61 nM | 17 nM | 23.2% | 28.3% |  |  |  | 3.1% | 660 nM | 1100 nM |  | 11
Cc1ccc(CC(=O)O)cc1OCCN1CCN(c2nc3ccc(Cl)cc3s2)C[C@@H]1C | 6.9% | 25 nM |  |  | 21.7% | 4900 nM |  |  |  | 500 nM |  |  | 
